Columns and labels:
RRM2 = biological target: T1, RRM2 (Homo sapiens, UniProt P31350); assay: Ubiquitination assay; assay type: cell-based; settings: HCT116 cells, with MG-132 pre-treatment
T1 construct: endogenous in cells; host or cells: HCT116
T1 sequence (P31350 1-389): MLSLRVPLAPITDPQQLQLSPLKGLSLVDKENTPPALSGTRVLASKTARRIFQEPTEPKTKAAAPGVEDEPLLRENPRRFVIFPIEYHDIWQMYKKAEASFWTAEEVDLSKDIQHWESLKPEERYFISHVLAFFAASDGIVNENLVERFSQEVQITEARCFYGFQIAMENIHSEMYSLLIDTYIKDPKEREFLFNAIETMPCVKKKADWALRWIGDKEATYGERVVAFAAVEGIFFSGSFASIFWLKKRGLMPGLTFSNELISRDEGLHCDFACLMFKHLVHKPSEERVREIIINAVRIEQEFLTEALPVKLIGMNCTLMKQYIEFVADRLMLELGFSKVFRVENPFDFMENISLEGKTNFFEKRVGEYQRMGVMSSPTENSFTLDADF
Method: It was next investigated whether treatment with DHS leads to reduced levels of RRM2 through the proteasome degradation pathway. […] To confirm whether degradation of RRM1 is dependent on RRM2, RRM1 or RRM2 expression was knocked down by treatment with siRNAs and resultant protein amounts were detected. […] Next, a ubiquitination assay with MG-132 pre-treatment was performed to determine whether a ubiquitination reaction is involved in DHS-mediated RRM2 degradation. […] According to the literature, Cyclin F is the E3 ligase that ubiquitinates RRM2 (D'Angiolella et al., 2012). Thus, the amount of RRM2 in cells was determined after knockdown of Cyclin F by siRNA. […] Cell viability after DHS exposure was also investigated in cells in which either RRM2 or Cyclin F expression was knocked down by siRNA.

HCT116 cells [1] = assay: Clonogenic colony formation assay; assay type: cell-based, human; settings: 0 to 50 μM
Method: To confirm the cell killing effect of DHS, a clonogenic colony formation assay was conducted. […] The effect of DHS on growth of cancer cell lines was analyzed using The NCI Development Therapeutics Program (DTP).

purified RRM2 protein = purified RRM2 protein (Homo sapiens, UniProt P31350); assay: In vitro thermal shift assay with purified protein; assay type: binding; settings: purified RRM1 and RRM2 mixed, incubated 4 hours
Method: To investigate binding of DHS to RRM1 and RRM2, a thermal shift assay was performed in HCT116 cells treated with DMSO (vehicle), resveratrol, DHS, gemcitabine, or hydroxyurea (Hu). Gemcitabine is known to bind RRM1 (Plunkett et al., 1995 and Chen et al., 2011), and Hu has been reported to bind RRM2 (Thelander et al., 1985). […] DHS stabilized RRM2 protein in a dose responsive manner (5 to 20 μM DHS; FIG. 11A). To rule out nonspecific effects of DHS on RRM2, an in vitro thermal shift assay was conducted. Purified RRM1 and RRM2 were mixed and then incubated with DHS or Hu for 4 hours before performing the assay.

HCT116 cells [2] = assay: dNTP amount in treated cells; assay type: cell-based, human
Excerpt: The effect of DHS on dNTP synthesis was investigated by measuring the amount of dNTPs in DHS-treated HCT116 cells.

Oc1ccc(/C=C/c2ccc(O)cc2)cc1 [DHS, 4,4′-trans-dihydroxystilbene]
Ubiquitinated RRM2 (RRM2): ubiquitinated RRM2 was increased by DHS treatment
Colony formation (HCT116 cells [1]): stronger suppression effect on HCT116 cell colony formation than resveratrol
Stabilisation of purified RRM2 after high temperature incubation (purified RRM2 protein): stabilized purified RRM2 protein
dNTP synthesis (HCT116 cells [2]): inhibited synthesis of dATP, dCTP, dGTP, and dTTP

— patent US11160767B2, “4,4′-trans-dihydroxystilbene for use in treating cancer” (The George Washington University, a Congressionally …, priority 2017, dated 2021)
